Earlier results, collected in patent publication US9012510B2, “Oleoylethanolamide based functional mesophases” (Nestec S.A., priority 2008, dated 2015).

Conditions: Thabuis et al., Lipid Technology 2007, 19, 225

Question: Which “effect of administration on food intake and gain in body mass” value does the source give for CCCCCCCC/C=C\CCCCCCCC(=O)NCCO [OEA, oleoylethanolamide] here?
Answer: potent and persistent decrease in food intake and gain in body mass
